Experimental data published in patent US20250242030A1, “COMPOSITIONS COMPRISING A NON-BIOABSORBABLE POLYMER AND METABOLIC INHIBITOR” (Board of Trustees of Michigan State University, priority 2022, published 2025).

What was measured:
Format in all cases: cell-based, mouse
BMDMs [1] = assay: Crystal violet cell viability assay in BMDMs; conditions: BMDMs treated with metabolic inhibitors; data not shown
Description: (§1) BMDMs derived from C57BL/6J mice (Jackson Laboratories) of 3-4 months were used. Mouse embryonic fibroblasts (NIH 3T3 cells, hereafter “MEFs”) were stably transfected with a Sleeping Beauty transposon plasmid (pLuBIG) having a bidirectional promoter driving an improved firefly luciferase gene (fLuc) and a fusion gene encoding a Blasticidin-resistance marker (BsdR) linked to eGFP (BGL). For temporal (IVIS) experiments lasting 12 days, 5,000 BGL cells were initially seeded in each well of a 96-well tissue culture plate in 200 μL if complete medium. For ATP, crystal violate, and Seahorse assays, 20,000 wild-type MEFs were seeded. For ATP, crystal violate, and cytokine/chemokine assays, 50,000 BMDMs were seeded. 60,000 BMDMs were seeded for the Seahorse assays. For IVIS experiments with glycolytic inhibitors, 20,000 BGL cells were initially seeded. Complete medium comprised DMEM medium, 10% heat inactivated fetal bovine serum (FBS), and 100 U/mL penicillin/streptomycin (all from ThermoFisher Scientific).
(§2) Cell viability was measured using the crystal violet staining assay at room temperature. 50 μL media containing cells is incubated with 150 μL of 99.9% methanol for 15 minutes. […] Absorbance (optical density) was acquired at 570 nm using the SpectraMax M3 Spectrophotometer (Molecular Devices) and SoftMax Pro software (ver. 7.0.2).

MEFs [2] = assay: Crystal violet cell viability assay in MEFs; conditions: MEFs treated with metabolic inhibitors; data not shown
Description: as §1, §2

BMDMs [3] = assay: Cytokine and chemokine multiplex assay in BMDM supernatants
Description: as §1
Cytokine and chemokine levels were measured using a MILLIPLEX MAP mouse magnetic bead multiplex kit (MilliporeSigma) to assess for IL-6, MCP-1, TNF-α, IL-1β, IL-4, IL-10, IFN-γ, and 1L-13 protein expression in supernatants. Data was acquired using Luminex 200 (Luminex Corporation) by the xPONENT software (Version 3.1, Luminex Corporation). […] Values exceeding the dynamic range of the assay, in accordance with manufacturer's instruction, were excluded. Additionally, IL-6 ELISA kits (RayBiotech) for supernatants were used according to manufacturer's instructions.

macrophages [4] = assay: TMRM staining for mitochondrial membrane potential; conditions: metformin added to exposed cells
macrophages [5] = assay: mitoSOX Red staining for mitochondrial ROS; conditions: added to PE-exposed macrophages, compared to macrophages exposed to only PE
Description: To test whether increased OCR at complex I (FIG. 8c) fueled ROS production in the mitochondrion, macrophages were stained with mitoSOX Red. Exposure to LPS or PE particles increased mitochondrial reactive oxygen species (ROS) relative to untreated macrophages. Addition of metformin decreased mitochondrial ROS compared to macrophages exposed to only PE. Mitochondrial membrane potential is critical for reverse electron transport (RET) at complex I, and subsequent generation of mitochondrial ROS.

BMDMs [6] = assay: Bioenergetic (ATP) levels in BMDMs; conditions: PE-exposed BMDMs with inhibitor of mitochondrial respiration
Description: (§3) Bioluminescence was measured using an IVIS Spectrum in vivo imaging system (PerkinElmer) after addition of 150 μg/mL of D-luciferin (PerkinElmer). Living Image (Version 4.5.2, PerkinElmer) was used for acquiring bioluminescence on the IVIS Spectrum. Standard ATP/ADP kits (Sigma-Aldrich) containing D-luciferin, luciferase, and cell lysis buffer were used according to manufacturer's instructions. Luminescence at integration time of 1,000 ms was obtained using the SpectraMax M3 Spectrophotometer (Molecular Devices) and SoftMax Pro software (ver. 7.0.2).
as §1
(§4) Preparation of ultra-high molecular weight polyethylene particles are described in Example 1 above. The bioenergetics measurements, Seahorse assay, crystal violet assay, and cytokine and chemokine assays were conducted as described in Example 1. Inhibitors rotenone, metformin, oligomycin, and antimycin A were obtained from MilliporeSigma. The reagents were reconstituted in complete medium (described above).

MEFs [7] = assay: Total ATP levels in lysed MEFs (ATP/ADP kit); conditions: PE-exposed MEFs with inhibitor of mitochondrial respiration
Description: as §3, §1

BMDMs [8] = assay: Seahorse assay (ECAR, PER, OCR) in BMDMs; conditions: PE-exposed BMDMs in presence of inhibitor
Description: as §1
To determine the metabolic pathways responsible for the observed bioenergetic changes, Seahorse assays were used to measure oxygen consumption rate (OCR), extracellular acidification rate (ECAR) and lactate-linked proton efflux rate (PER) in a customized medium (pH 7.4). Basal measurements of OCR, ECAR, and PER were obtained in real time using the Seahorse XFe-96 Extracellular Flux Analyzer (Agilent Technologies). Prior to running the assay, cell culture medium was washed with and replaced by the Seahorse XF DMEM medium (pH 7.4) supplemented with 25 mM D-glucose and 4 mM glutamine. The Seahorse plates were equilibrated in a non-CO2 incubator for an hour prior to the assay. The Seahorse ATP rate and cell energy phenotype assays were run according to manufacturer's instruction and all reagents for the Seahorse assays were sourced from Agilent Technologies. Wave software (Version 2.6.1) was used to export Seahorse data directly as means±standard deviation (SD).
Seahorse assays measures ECAR as an index of glycolytic flux, OCR as an index of oxidative phosphorylation and PER as an index of monocarboxylate transporter function in live cells, and are used to assess for metabolic reprogramming. […] (FIGS. 3a-c)
as §4

[9] = 1 mM inhibitor, BMDMs exposed to ultra-high molecular weight PE particles
[10] = metformin, BMDMs treated with PE

In the case of `O=CC[C@@H](O)[C@H](O)[C@H](O)CO` [2DG, 2-deoxyglucose], the cell viability (BMDMs [1]) was “did not lower”, the cell viability (MEFs [2]) was “did not lower” and the IL-4 (BMDMs [3]; [9]) was “increased”. The “expression of IL-1β” value (BMDMs [3]; [9]) was “decreased”, the “expression of IL-6” value (BMDMs [3]; [9]) was “decreased” and the “expression of MCP-1” value (BMDMs [3]; [9]) was “decreased”. The “expression of TNF-α” value (BMDMs [3]; [9]) was “decreased”.
With `O=C(C=Cc1cccnc1)c1ccncc1` [3PO, 3-(3-pyridinyl)-1-(4-pyridinyl)-2-propen-1-one] the cell viability (BMDMs [1]) was “did not lower”, the cell viability (MEFs [2]) was “did not lower” and the IL-4 (BMDMs [3]; [9]) was “increased”. The “expression of IL-1β” value (BMDMs [3]; [9]) was “decreased”, the “expression of IL-6” value (BMDMs [3]; [9]) was “decreased” and the “expression of MCP-1” value (BMDMs [3]; [9]) was “decreased”. For the same compound, the “expression of TNF-α” value (BMDMs [3]; [9]) was “decreased”.
`NOCC(=O)O` [aminooxyacetic acid] was tested, and the IL-4 (BMDMs [3]; [9]) was “increased”, the IL-10 levels (BMDMs [3]; [9]) was “increased” and the “expression of IL-1β” value (BMDMs [3]; [9]) was “decreased”. For the same compound, the “expression of IL-6” value (BMDMs [3]; [9]) was “decreased”, the “expression of MCP-1” value (BMDMs [3]; [9]) was “decreased” and the “expression of TNF-α” value (BMDMs [3]; [9]) was “decreased”.
For `CN(C)C(=N)N=C(N)N` [metformin], the “elevated mitochondrial membrane potential” value (macrophages [4]) was “decreases”, the “mitochondrial ROS” value (macrophages [5]) was “decreased” and the “ATP levels in PE-exposed cells” value (BMDMs [6]) was “did not impact”. For the same compound, the “ATP levels in PE-exposed cells” value (MEFs [7]) was “did not impact”, the ECAR (BMDMs [8]) was “reduced” and the OCR (BMDMs [8]) was “reduced”. For the same compound, the PER (BMDMs [8]) was “reduced”, the IL-1β (BMDMs [3]; [10]) was “decreases” and the IL-4 (BMDMs [3]; [10]) was “did not increase”. The IL-6 (BMDMs [3]; [10]) was “decreases”, the IL-10 (BMDMs [3]; [10]) was “did not increase” and the MCP-1 (BMDMs [3]; [10]) was “decreases”. For the same compound, the TNF-α expression (BMDMs [3]; [10]) was “not mitigated”.
For `CC[C@H]1/C=C/C=C/C[C@@H](C)[C@H](O)[C@@](C)(O)C(=O)[C@@H](C)[C@H](O)[C@@H](C)C(=O)[C@@H](C)[C@H](O)[C@@H](C)/C=C/C(=O)O[C@@H]2[C@H](C)[C@H](CC1)O[C@]1(CC[C@H](C)[C@H](C[C@@H](C)O)O1)[C@H]2C` [oligomycin], the “ATP levels in PE-exposed cells” value (BMDMs [6]) was “did not impact”, the “ATP levels in PE-exposed cells” value (MEFs [7]) was “did not impact” and the OCR (BMDMs [8]) was “affected”.
For `C=C(C)[C@H]1Cc2c(ccc3c2O[C@@H]2COc4cc(OC)c(OC)cc4[C@@H]2C3=O)O1` [rotenone], the “ATP levels in PE-exposed cells” value (BMDMs [6]) was “did not impact”, the “ATP levels in PE-exposed cells” value (MEFs [7]) was “did not impact” and the ECAR (BMDMs [8]) was “did not impact”. For the same compound, the OCR (BMDMs [8]) was “decrease” and the PER (BMDMs [8]) was “did not impact”.
